Patent US20080027033A1, “Method and Composition for Treatment of Cutaneous Lesions” (Acrux DDS Pty Ltd, priority 2003, published 2008)

Test: diffusion across skin after transdermal spray administration
Details: effect of adding octyl salicylate to the transdermal spray formulation (Example 1); predicted cumulative amount, FIGS. 1 and 2

- amount diffusing across the skin over 24 hours: significant marked increase
Compound: C[C@]12CC[C@@H]3c4ccc(O)cc4CC[C@H]3[C@@H]1CC[C@@H]2O [estradiol]
